The results in this text go back to patent US20070123546A1, “2-amino-7,8-dihydro-6H-pyrido[4,3-d]pyrimidin-5-ones” (Chiron Corporation, priority 2005, published 2007).

For this test, the target named is His-tagged N-terminal ATP binding domain (amino acid residues 9-236) of HSP90α (Homo sapiens, UniProt P07900). Nature of the test: HSP90 inhibitor binding potency: TRF competition binding assay. Particulars: competition with biotinylated radicicol. On the procedure:
HSP90 Inhibitor Binding Potency: TRF Binding Assay
In this example, the binding potency of HSP90 inhibitors as measured by a TRF binding assay is described.
TRF competition binding assays were performed to determine the binding potency (IC50 values) of HSP90 inhibitors. Purified His-tagged N-terminal ATP binding domain (amino acid residues 9-236) of HSP90α (HSP90α GeneID: 3320; mRNA Sequence NM_005348) was incubated for two hours at room temperature in binding buffer (50 mM HEPES, 6 mM MgCl2, 20 mM KCl and 0.1% BSA) with biotinylated radicicol and progressively higher concentrations of the competing compounds. A fraction of the mixture was transferred to capture plates (coated with streptavidin) and incubated for one hour at room temperature. After washing with DELFIA wash buffer, europium-labeled anti-his antibody was added and incubated for two hours at room temperature, followed by washing with DELFIA buffer. DELFIA enhancement solution was then added. After gentle shaking for 10 minutes, the plates were read in VICTOR for europium counts.

As usually defined, the IC50 is the midpoint of a concentration-inhibition curve. Low readings indicate higher potency, high ones lower potency. Molecule `Cc1cc(F)ccc1-c1cc(F)ccc1[C@H]1Cc2nc(N)ncc2C(=O)N1` [Compound 61, (R)-2-Amino-7-(5,4′-difluoro-2′-methyl-biphenyl-2-yl)-7,8-dihydro-6H-pyrido[4,3-d]pyrimidin-5-one] yielded a half-inhibitory concentration (IC50) (Table 2) of less than 10 µM. Still for that read-out and setting: next, `Nc1ncc2c(n1)C[C@H](c1ccc(F)cc1-c1cccnc1)NC2=O` [Compound 62, (R)-2-Amino-7-(4-fluoro-2-pyridin-3-yl-phenyl)-7,8-dihydro-6H-pyrido[4,3-d]pyrimidin-5-one]: less than 10 µM; `COc1ncc(-c2cc(F)ccc2[C@H]2Cc3nc(N)ncc3C(=O)N2)c(OC)n1` [Compound 63, (R)-2-Amino-7-[2-(2,4-dimethoxy-pyrimidin-5-yl)-4-fluoro-phenyl]-7,8-dihydro-6H-pyrido[4,3-d]pyrimidin-5-one]: more than 10 µM; `COc1nc(-c2ccccc2[C@H]2Cc3nc(N)nc(C)c3C(=O)N2)ncc1F` [Compound 64, (R)-2-Amino-7-[2-(5-fluoro-4-methoxy-pyrimidin-2-yl)-phenyl]-4-methyl-7,8-dihydro-6H-pyrido[4,3-d]pyrimidin-5-one]: less than 10 µM. On to `COc1ccc(-c2cc(F)ccc2[C@H]2Cc3nc(N)nc(C)c3C(=O)N2)s1` [Compound 65, (R)-2-Amino-7-[4-fluoro-2-(5-methoxy-thiophen-2-yl)-phenyl]-4-methyl-7,8-dihydro-6H-pyrido[4,3-d]pyrimidin-5-one], for which the IC50 (Table 2) was less than 10 µM. With `Cc1nc(N)nc2c1C(=O)N[C@@H](c1ccccc1Br)C2` [Compound 66, (R)-2-Amino-7-(2-bromo-phenyl)-4-methyl-7,8-dihydro-6H-pyrido[4,3-d]pyrimidin-5-one], under “Table 2”, the IC50 was more than 10 µM. Where the note is “Table 2”, `COc1nc(-c2ccccc2[C@H]2Cc3nc(N)nc(C)c3C(=O)N2)cs1` [Compound 67, (R)-2-Amino-7-[2-(2-methoxy-thiazol-4-yl)-phenyl]-4-methyl-7,8-dihydro-6H-pyrido[4,3-d]pyrimidin-5-one] displayed an IC50 of less than 10 µM. Same read-out and setting: next, `COc1ncc(-c2ccccc2[C@H]2Cc3nc(N)nc(C)c3C(=O)N2)nc1OC` [Compound 68]: less than 10 µM; `COc1cncc(-c2ccccc2[C@H]2Cc3nc(N)nc(C)c3C(=O)N2)n1` [Compound 69, (R)-2-Amino-7-[2-(6-methoxy-pyrazin-2-yl)-phenyl]-4-methyl-7,8-dihydro-6H-pyrido[4,3-d]pyrimidin-5-one]: less than 10 µM; `CCc1nc(N)nc2c1C(=O)N[C@@H](c1ccc(F)cc1Br)C2` [Compound 70, (R)-2-Amino-7-(2-bromo-4-fluoro-phenyl)-4-ethyl-7,8-dihydro-6H-pyrido[4,3-d]pyrimidin-5-one]: more than 10 µM. The same measure, in the same setting: as for `CCOc1cncc(-c2ccccc2[C@H]2Cc3nc(N)nc(C)c3C(=O)N2)n1` [Compound 71, (R)-2-Amino-7-[2-(6-ethoxy-pyrazin-2-yl)-phenyl]-4-methyl-7,8-dihydro-6H-pyrido[4,3-d]pyrimidin-5-one], the figure is less than 10 µM; as for `CCOc1nc(-c2cc(F)ccc2[C@H]2Cc3nc(N)nc(C)c3C(=O)N2)ncc1F` [Compound 72], less than 10 µM; as for `COc1cccc(-c2cc(F)ccc2[C@H]2Cc3nc(N)nc(C)c3C(=O)N2)c1OC` [Compound 73, (R)-2-Amino-7-(5-fluoro-2,3′-dimethoxy-biphenyl-2-yl)-4-methyl-7,8-dihydro-6H-pyrido[4,3-d]pyrimidin-5-one], less than 10 µM. The molecule `CCOc1cccc(-c2cc(F)ccc2[C@H]2Cc3nc(N)nc(C)c3C(=O)N2)n1` [Compound 74] registered an IC50 (Table 2) of less than 10 µM. In turn, `CCOc1nc(-c2cc(F)ccc2[C@H]2Cc3nc(N)nc(C)c3C(=O)N2)cnc1N` [Compound 75, (R)-2-Amino-7-[2-(5-amino-6-ethoxy-pyrazin-2-yl)-4-fluoro-phenyl]-4-methyl-7,8-dihydro-6H-pyrido[4,3-d]pyrimidin-5-one] came in with an IC50 (Table 2) of less than 10 µM. Same read-out and setting: next, `CCc1nc(N)nc2c1C(=O)N[C@@H](c1ccccc1-c1cccc(OC)n1)C2` [Compound 77, (R)-2-Amino-4-ethyl-7-[2-(6-methoxy-pyndin-2-yl)-phenyl]-7,8-dihydro-6H-pyrido[4,3-d]pyrimidin-5-one]: less than 10 µM; `CCc1nc(N)nc2c1C(=O)N[C@@H](c1ccccc1-c1cncc(OC)n1)C2` [Compound 78, (R)-2-Amino-4-ethyl-7-[2-(6-methoxy-pyrazin-2-yl)-phenyl]-7,8-dihydro-6H-pyrido[4,3-d]pyrimidin-5-one]: less than 10 µM; `CCc1nc(N)nc2c1C(=O)N[C@@H](c1ccccc1-c1cnc(N)c(OC)n1)C2` [Compound 79, (R)-2-Amino-7-[2-(5-amino-6-methoxy-pyrazin-2-yl)-phenyl]-4-ethyl-7,8-dihydro-6H-pyrido[4,3-d]pyrimidin-5-one]: less than 10 µM.

Take `CCc1nc(N)nc2c1C(=O)N[C@@H](c1ccccc1-c1csc(OC)n1)C2` [Compound 80, (R)-2-Amino-4-ethyl-7-[2-(2-methoxy-thiazol-4-yl)-phenyl]-7,8-dihydro-6H-pyrido[4,3-d]pyrimidin-5-one]: the half-inhibitory concentration (IC50) (Table 2) is more than 10 µM. `CCc1nc(N)nc2c1C(=O)N[C@@H](c1ccc(F)cc1-c1cccc(OC)n1)C2` [Compound 81, (R)-2-Amino-4-ethyl-7-[4-fluoro-2-(6-methoxy-pyridin-2-yl)-phenyl]-7,8-dihydro-6H-pyrido[4,3-d]pyrimidin-5-one] displayed a 50% inhibitory concentration (IC50) (Table 2) of less than 10 µM. Still for that read-out and setting: next, `CCc1nc(N)nc2c1C(=O)N[C@@H](c1ccc(F)cc1-c1cncc(OC)n1)C2` [Compound 82, (R)-2-Amino-4-ethyl-7-[4-fluoro-2-(6-methoxy-pyrazin-2-yl)-phenyl]-7,8-dihydro-6H-pyrido[4,3-d]pyrimidin-5-one]: less than 10 µM; `CCOc1nc(-c2cc(F)ccc2[C@H]2Cc3nc(N)ncc3C(=O)N2)cnc1N` [Compound 83, (R)-2-Amino-7-[2-(5-amino-6-ethoxy-pyrazin-2-yl)-4-fluoro-phenyl]-7,8-dihydro-6H-pyrido[4,3-d]pyrimidin-5-one]: less than 10 µM; `CCc1nc(N)nc2c1C(=O)N[C@@H](c1ccc(F)cc1-c1csc(OC)n1)C2` [Compound 84, (R)-2-Amino-4-ethyl-7-[4-fluoro-2-(2-methoxy-thiazol-4-yl)-pbenyl]-7,8-dihydro-6H-pyrido[4,3-d]pyrimidin-5-one]: less than 10 µM.

Consider `CCOc1cncc(-c2cc(F)ccc2[C@H]2Cc3nc(N)nc(C)c3C(=O)N2)n1` [Compound 85, (R)-2-Amino-7-[2-(6-ethoxy-pyrazin-2-yl)-4-fluoro-phenyl]-4-methyl-7,8-dihydro-6H-pyrido[4,3-d]pyrimidin-5-one], for which, for the setting “Table 2”, the IC50 was less than 10 µM. The same measure, in the same setting: next, `CCOc1cncc(-c2cc(F)ccc2[C@H]2Cc3nc(N)nc(CC)c3C(=O)N2)n1` [Compound 86, (R)-2-Amino-7-[2-(6-ethoxy-pyrazin-2-yl)-4-fluoro-phenyl]-4-ethyl-7,8-dihydro-6H-pyrido[4,3-d]pyrimidin-5-one]: less than 10 µM; `CCOc1cncc(-c2cc(F)ccc2[C@H]2Cc3nc(N)ncc3C(=O)N2)n1` [Compound 87, (R)-2-Amino-7-[2-(6-ethoxy-pyrazin-2-yl)-4-fluoro-phenyl]-7,8-dihydro-6H-pyrido[4,3-d]pyrimidin-5-one]: less than 10 µM. Same read-out and setting: next, `COc1cncc(-c2scnc2[C@H]2Cc3nc(N)nc(C)c3C(=O)N2)n1` [Compound 88, (R)-2-Amino-7-[5-(6-methoxy-pyrazin-2-yl)-thiazol-4-yl]-4-methyl-7,8-dihydro-6H-pyrido[4,3-d]pyrimidin-5-one]: less than 10 µM.

Molecule `Cc1nc(N)nc2c1C(=O)NC(c1ccc(F)cc1-c1ccccc1C(F)(F)F)C2` (stereo not shown) [Compound 89, 2-Amino-7-(5-fluoro-2′-trifluoromethyl-biphenyl-2-yl)-4-methyl-7,8-dihydro-6H-pyrido[4,3-d]pyrimidin-5-one] showed an IC50 (Table 3) of less than 10 µM. Still for that read-out and setting: next, `Cc1nc(N)nc2c1C(=O)NC(c1ccc(F)cc1-c1ccncc1)C2` (stereo not shown) [Compound 90, 2-Amino-7-(4-fluoro-2-pyridin-4-yl-phenyl)-4-methyl-7,8-dihydro-6H-pyrido[4,3-d]pyrimidin-5-one]: more than 10 µM. `COc1ccc(-c2cc(F)ccc2C2Cc3nc(N)nc(C)c3C(=O)N2)cc1F` (stereo not shown) [Compound 91, 2-Amino-7-(5,3′-difluoro-4′-methoxy-biphenyl-2-yl)-4-methyl-7,8-dihydro-6H-pyrido[4,3-d]pyrimidin-5-one]: for the setting “Table 3”, the half-inhibitory concentration (IC50) was more than 10 µM. On the same count and under the same terms, as for `Cc1nc(N)nc2c1C(=O)NC(c1ccccc1)C2` (stereo not shown) [Compound 92, 2-Amino-4-methyl-7-phenyl-7,8-dihydro-6H-pyrido[4,3-d]pyrimidin-5-one], the figure is more than 10 µM. The same measure, in the same setting: next, `COc1cncc(-c2cc(F)ccc2C2Cc3nc(N)nc(C)c3C(=O)N2CCN)n1` (stereo not shown) [Compound 93, 2-Amino-6-(2-amino-ethyl)-7-[4-fluoro-2-(6-methoxy-pyrazin-2-yl)-phenyl]-4-methyl-7,8-dihydro-6H-pyrido[4,3-d]pyrimidin-5-one]: less than 10 µM.

Molecule `COc1nc(-c2cc(F)ccc2[C@H]2Cc3nc(N)nc(C)c3C(=O)N2)cs1` [Compound 95, (R)-2-Amino-7-[4-fluoro-2-(2-methoxy-thiazol-4-yl)-phenyl]-4-methyl-7,8-dihydro-6H-pyrido[4,3-d]pyrimidin-5-one] returned an IC50 (Table 3) of less than 10 µM. Regarding `COc1cccc(-c2cc(F)ccc2[C@H]2Cc3nc(N)ncc3C(=O)N2)n1` [Compound 96, (R)-2-Amino-7-[4-fluoro-2-(6-methoxy-pyridin-2-yl)-phenyl]-7,8-dihydro-6H-pyrido[4,3-d]pyrimidin-5-one], the IC50 (Table 3) was less than 10 µM.
